Test results as given in PubChem BioAssay (NCI).
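Results reflect a 48-hour exposure of cells in 96-well plates to compound at five concentrations. At the TGI there is no net growth.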

Assays:
Assay in all cases: inhibition of tumour cell growth, NCI panel, 48 h
786-0 renal = tested on: 786-0 renal
A549 NSCLC = tested on: A549 NSCLC
ACHN renal = tested on: ACHN renal
BT-549 breast = tested on: BT-549 breast
CAKI-1 renal = tested on: CAKI-1 renal
COLO 205 colon = tested on: COLO 205 colon
DU-145 prostate = tested on: DU-145 prostate
HCC-2998 colon = tested on: HCC-2998 colon
HCT-116 colon = tested on: HCT-116 colon
HCT-15 colon = tested on: HCT-15 colon
HOP-62 NSCLC = tested on: HOP-62 NSCLC
HOP-92 NSCLC = tested on: HOP-92 NSCLC
HS 578T breast = tested on: HS 578T breast
IGROV1 ovarian = tested on: IGROV1 ovarian
K-562 leukemia = tested on: K-562 leukemia
KM12 colon = tested on: KM12 colon
MALME-3M melanoma = tested on: MALME-3M melanoma
MCF7 breast = tested on: MCF7 breast
MDA-MB-231 breast = tested on: MDA-MB-231 breast
MDA-MB-435 = tested on: MDA-MB-435
MDA-N = tested on: MDA-N
NCI-H226 lung = tested on: NCI-H226 lung
NCI-H23 lung = tested on: NCI-H23 lung
NCI-H460 lung = tested on: NCI-H460 lung
NCI/ADR-RES ovarian = tested on: NCI/ADR-RES ovarian
OVCAR-4 ovarian = tested on: OVCAR-4 ovarian
OVCAR-5 ovarian = tested on: OVCAR-5 ovarian
OVCAR-8 ovarian = tested on: OVCAR-8 ovarian
PC-3 prostate = tested on: PC-3 prostate
RXF 393 renal = tested on: RXF 393 renal
SF-268 CNS = tested on: SF-268 CNS
SF-295 CNS = tested on: SF-295 CNS
SF-539 CNS = tested on: SF-539 CNS
SK-MEL-2 melanoma = tested on: SK-MEL-2 melanoma
SK-MEL-28 melanoma = tested on: SK-MEL-28 melanoma
SK-MEL-5 melanoma = tested on: SK-MEL-5 melanoma
SK-OV-3 ovarian = tested on: SK-OV-3 ovarian
SN12C renal = tested on: SN12C renal
SNB-19 CNS = tested on: SNB-19 CNS
SNB-75 CNS = tested on: SNB-75 CNS
SR leukemia = tested on: SR leukemia
SW-620 colon = tested on: SW-620 colon
T-47D breast = tested on: T-47D breast
TK-10 renal = tested on: TK-10 renal
U251 CNS = tested on: U251 CNS
UACC-257 melanoma = tested on: UACC-257 melanoma
UACC-62 melanoma = tested on: UACC-62 melanoma
UO-31 renal = tested on: UO-31 renal
A498 renal = tested on: A498 renal
CCRF-CEM leukemia = tested on: CCRF-CEM leukemia
EKVX NSCLC = tested on: EKVX NSCLC
HL-60(TB) leukemia = tested on: HL-60(TB) leukemia
HT29 colon = tested on: HT29 colon
LOX IMVI melanoma = tested on: LOX IMVI melanoma
M14 melanoma = tested on: M14 melanoma
NCI-H522 lung = tested on: NCI-H522 lung
OVCAR-3 ovarian = tested on: OVCAR-3 ovarian
RPMI-8226 leukemia = tested on: RPMI-8226 leukemia

C=CC1=C(C)C2=NC1=CC1=NC(=CC3=C(C)C4=C(O)[C@H](C(=O)OC)C(=C5NC(=C2)[C@@H](C)[C@@H]5CCC(=O)O)C4=N3)C(CC)=C1C
TGI (786-0 renal): > 28.2 µM | TGI (A549 NSCLC): > 43.9 µM | TGI (ACHN renal): 7.21 µM | TGI (BT-549 breast): > 20.2 µM | TGI (CAKI-1 renal): > 100 µM | TGI (COLO 205 colon): 11.8 µM | TGI (DU-145 prostate): > 100 µM | TGI (HCC-2998 colon): 4.23 µM | TGI (HCT-116 colon): > 59 µM | TGI (HCT-15 colon): 9.72 µM | TGI (HOP-62 NSCLC): > 33.5 µM | TGI (HOP-92 NSCLC): 3.98 µM | TGI (HS 578T breast): > 100 µM | TGI (IGROV1 ovarian): > 23.8 µM | TGI (K-562 leukemia): 6.24 µM | TGI (KM12 colon): > 20.5 µM | TGI (MALME-3M melanoma): > 100 µM | TGI (MCF7 breast): 11 µM | TGI (MDA-MB-231 breast): > 60.5 µM | TGI (MDA-MB-435): > 46.5 µM | TGI (MDA-N): > 100 µM | TGI (NCI-H226 lung): > 100 µM | TGI (NCI-H23 lung): 9.12 µM | TGI (NCI-H460 lung): 13.8 µM | TGI (NCI/ADR-RES ovarian): > 22.1 µM | TGI (OVCAR-4 ovarian): 22 µM | TGI (OVCAR-5 ovarian): > 23.7 µM | TGI (OVCAR-8 ovarian): > 100 µM | TGI (PC-3 prostate): > 41.1 µM | TGI (RXF 393 renal): 9.1 µM | TGI (SF-268 CNS): > 100 µM | TGI (SF-295 CNS): 6.01 µM | TGI (SF-539 CNS): 4.63 µM | TGI (SK-MEL-2 melanoma): > 22.2 µM | TGI (SK-MEL-28 melanoma): 3.54 µM | TGI (SK-MEL-5 melanoma): 3.75 µM | TGI (SK-OV-3 ovarian): > 40 µM | TGI (SN12C renal): > 100 µM | TGI (SNB-19 CNS): > 100 µM | TGI (SNB-75 CNS): 8.25 µM | TGI (SR leukemia): 1.5 µM | TGI (SW-620 colon): 10.8 µM | TGI (T-47D breast): 62.4 µM | TGI (TK-10 renal): 25.5 µM | TGI (U251 CNS): > 41.2 µM | TGI (UACC-257 melanoma): 42.7 µM | TGI (UACC-62 melanoma): 7.99 µM | TGI (UO-31 renal): 11.7 µM

C/C(=N\Nc1nc2ccccc2s1)c1ccc2ccccc2n1
TGI (786-0 renal): > 100 µM | TGI (A498 renal): > 100 µM | TGI (A549 NSCLC): > 100 µM | TGI (ACHN renal): > 100 µM | TGI (BT-549 breast): > 100 µM | TGI (CAKI-1 renal): > 100 µM | TGI (CCRF-CEM leukemia): 63.7 µM | TGI (COLO 205 colon): > 100 µM | TGI (DU-145 prostate): > 100 µM | TGI (EKVX NSCLC): > 100 µM | TGI (HCT-116 colon): > 100 µM | TGI (HCT-15 colon): > 100 µM | TGI (HL-60(TB) leukemia): 52.9 µM | TGI (HOP-62 NSCLC): > 100 µM | TGI (HS 578T breast): > 100 µM | TGI (HT29 colon): > 100 µM | TGI (IGROV1 ovarian): 47.1 µM | TGI (KM12 colon): > 100 µM | TGI (LOX IMVI melanoma): > 100 µM | TGI (M14 melanoma): > 100 µM | TGI (MALME-3M melanoma): > 100 µM | TGI (MCF7 breast): > 100 µM | TGI (MDA-MB-231 breast): > 100 µM | TGI (MDA-MB-435): > 100 µM | TGI (MDA-N): > 100 µM | TGI (NCI-H23 lung): > 100 µM | TGI (NCI-H460 lung): > 100 µM | TGI (NCI-H522 lung): > 100 µM | TGI (NCI/ADR-RES ovarian): > 100 µM | TGI (OVCAR-3 ovarian): > 100 µM | TGI (OVCAR-4 ovarian): > 100 µM | TGI (OVCAR-5 ovarian): > 100 µM | TGI (OVCAR-8 ovarian): > 100 µM | TGI (PC-3 prostate): > 100 µM | TGI (RPMI-8226 leukemia): 45.3 µM | TGI (RXF 393 renal): 73.3 µM | TGI (SF-268 CNS): > 100 µM | TGI (SF-295 CNS): > 100 µM | TGI (SF-539 CNS): > 100 µM | TGI (SK-MEL-2 melanoma): > 100 µM | TGI (SK-MEL-28 melanoma): > 100 µM | TGI (SK-MEL-5 melanoma): > 100 µM | TGI (SK-OV-3 ovarian): > 100 µM | TGI (SN12C renal): > 100 µM | TGI (SNB-19 CNS): > 100 µM | TGI (SNB-75 CNS): 97.2 µM | TGI (SR leukemia): 5.88 µM | TGI (SW-620 colon): > 100 µM | TGI (T-47D breast): 53.5 µM | TGI (TK-10 renal): > 100 µM | TGI (U251 CNS): > 100 µM | TGI (UACC-257 melanoma): > 100 µM | TGI (UACC-62 melanoma): > 100 µM | TGI (UO-31 renal): > 100 µM
